Tests used:
[1] = system: HEK293T cells expressing CPG2; assay: Prodrug treatment of HEK293T cells expressing CPG2 variants; assay type: cell-based, human
Experimental: Expression of CPG2 without a signal peptide (CPG2nosigp) was employed as a control. HEK293t cells stably transfected with CPG2 variants were exposed to P-AMS (1 μM) for 48 hours and analyzed by bright field microscopy (FIG. 9A). Cells were exposed to varying concentrations of P-AMS and cell viability was analyzed at 48 hr post treatment (FIG. 9B).

[2] = system: Human Jurkat T cells; assay: Prodrug activation by purified recombinant CPG2, Jurkat viability; assay type: cell-based; details: Jurkat viability at 48 hours
Experimental: FIG. 4 provides exemplary data showing activation of P-AMS (see FIG. 2) by recombinant CPG2 expressed and purified from E. coli. (A) Human Jurkat T cells were incubated with or without P-AMS in the presence of increasing concentration of purified CPG2. […] (B) Recombinant CPG2 was exposed to various concentrations of glutamated AMS prodrug. Following incubation at 37° C. (0.5, 1, 2, and 4 hr.), the reaction was combined with Amplex® Red (converts free glutamate to a fluorescent species) and fluorescent emission was analyzed using a fluorescence multiwell plate scanner.
The CPG2-pET151 vector was transformed into BL21 star E. coli cells and induced with IPTG. Bacteria were homogenized in a French Press and purified by affinity chromatography over Ni++ beads using standard protocols. Imidazole was exchanged via PBS dialysis and protein was purified via desalting spin columns. The expressed and purified CPG2 was assayed to confirm that the active enzyme was a potent converter of glutamated prodrugs. […] Pro-AMS was activated by recombinant CPG2 in vitro. Human Jurkat T cells were incubated with or without P-AMS in the presence of increasing concentration of purified CPG2. […] (FIG. 4B) Similar enzyme kinetics will be used to assess the characteristics of the enzyme activity for each of the prodrugs similarly. […]

[3] = system: Jurkat T cells; details: increasing prodrug with CPG2 supernatant, 48 hours
[4] = system: SET2 cells; assay: SET2 viability with prodrug plus recombinant enzyme or enzyme-containing supernatant; assay type: cell-based; details: SET2, with Beta-lactamase supernatant
Experimental: Recombinant CPG2 protein was initially synthesized, purified (FIGS. 15A and 15B), and incubated with increasing concentrations of prodrug in a glutamate release assay (FIG. 14C). Mass spectrometry was used to determine that the glutamate moiety was released from all of the glutamate prodrugs.
Cell viability was measured by CellTitre-Glo® luminescence assay.
To determine to respective enzyme output of the Beta-lactamase constructs relative to the previous CPG2 constructs, a quantitative sandwich ELISA was used to determine the concentration (ng/mL) of purified recombinant CPG2, and a quantitative nitrocefin assay was used to determine the concentration (ng/mL) of purified recombinant Beta-lactamase (FIG. 22A). Cell viability was measured by CellTitre-Glo® luminescence in the presence of prodrug (glut-AMS or ceph-AMS) and varying concentrations of purified recombinant CPG2 or Beta-lactamase (FIG. 22B).

Compound | activation of prodrug ([1]; HEK293T cells expressing CPG intracellularly) | cell death ([1]; stably transfected HEK293T with cell-secreted or transmembrane CPG2, 48 hr) | activation by recombinant CPG2 in vitro [2] | cell viability [3] | cell viability [4]
NS(=O)(=O)OC[C@H]1O[C@@H](n2cnc3c(NC(=O)N[C@@H](CCC(=O)O)C(=O)O)ncnc32)[C@H](O)[C@@H]1O [P-AMS, ((9-((2R,3R,4S,5R)-3,4-dihydroxy-5-((sulfamoyloxy)methyl)tetrahydrofuran-2-yl)-9H-purin-6-yl)carbamoyl)-L-glutamic acid] | not activated | significant cell death | activated | significant decrease in cell viability | 
Nc1ncnc2c1ncn2[C@@H]1O[C@H](COS(=O)(=O)NCC2=C(C(=O)O)N3C(=O)[C@@H](NC(=O)Cc4cccs4)[C@H]3SC2)[C@@H](O)[C@H]1O [ceph-AMS] |  |  |  |  | significant decrease in cell viability

— patent publication US12496310B2, “Compositions and methods for adoptive cell therapy” (MEMORIAL SLOAN KETTERING CANCER CENTER, priority 2017, dated 2025)
